From patent US5538975A, “1,3-oxathiolane nucleoside compounds and compositions” (BioChem Pharma, Inc., priority 1991, dated 1996)
Converted amounts (≈) assume the structure as drawn. Where two headings read alike, the source gives them in different places.

Experiments:
in vitro = settings: human
Experimental: The cytotoxicities of the compounds of Example 1 and the racemic compound (Intermediate 1) were determined in two CD4 cell lines: H9 and CEM.
Compounds for test were serially diluted from 100 μg/ml to 0.3 μg/ml (final concentrations) in 96 well microtitre plates. 3.6×10^4 cells were inoculated into each well of the plates including drug-free controls. After incubation at 37° C. for 5 days, the viable cell count was determined by removing a sample of cell suspension and counting trypan blue excluding cells in a hemocytometer.

HIV-1 strain RF [1] = assay: microbe, parasite or virus in culture; settings: Human immunodeficiency virus 1, MT4, in Homo sapiens, read-out: 50% Antiviral Activity, Formazan
Experimental: Antiviral activity of the compound of Example 1 was determined against HIV-1 in the following cell lines.
MT-4 cells, a human T-cell leukaemia cell line, infected with HIV-1 strain RF.
Antiviral activity in C8166 cells was determined by inhibition of syncytium formation (Tochikura et al Virology, 164, 542-546) and in MT-4 cells by inhibition of formazan conversion [Baba et al, Biochem Biophys Res Commun., 142, pp. 128-134 (1987); Mossman, J. Immun. Meth., 65, pp. 55-57 (1983)]. Antiviral activities were also determined by analyzing the amount of HIV p24 antigen synthesized in the presence and absence of enantiomers.

CD4 cell lines = assay: Cytotoxicity of the enantiomers (general statement); assay type: cell-based; settings: in words
HIV-1 strain RF [2] = assay: Antiviral activity, inhibition of syncytium formation in C8166 cells; assay type: cell-based, HIV-1; C8166 human T-lymphoblastoid cell line
[3] = system: HIV p24 antigen (HIV-1 RF); assay: Inhibition of HIV p24 antigen synthesis in C8166 cells; assay type: cell-based, HIV-1; C8166 human T-lymphoblastoid cell line

Structure (SMILES) | activity relative to the (+)-enantiomer (HIV) | CC50 at 120 h (in vitro; cem cells) [mg/L] | CC50 at 120 h (in vitro; h9 cells) [mg/L] | IC50 (HIV-1 strain RF [1]) [mg/L] | cytotoxicity (CD4 cell lines) | IC50 (HIV-1 strain RF [2]; Human immunodeficiency virus 1, C8166 cells, HIV-1 RF, read-out: 50% Antiviral Activity, Inhibition of syncytium formation) [mg/L] | IC50 ([3]; Human immunodeficiency virus 1, C8166 cells, virus RF, read-out: 50% Inhibition HIV p24 Synthesis) [mg/L] | IC50 (HIV-1 strain RF [2]; Human immunodeficiency virus 1, C8166, read-out: 50% Antiviral Activity, Inhibition of syncytium formation) [mg/L] | IC50 ([3]; Human immunodeficiency virus 1, C8166, read-out: 50% Inhibition HIV p24 Synthesis) [mg/L]
Nc1nc(=O)n([C@@H]2CS[C@H](CO)O2)cc1F [(-)-enantiomer, (-)-4-amino-5-fluoro-1-(2-hydroxymethyl-1,3-oxathiolan-5-yl)-(1H)-pyrimidin-2-one] | much more active than the (+)-enantiomer | 148 (≈ 599 µM) | 296 (≈ 1200 µM) | 0.14 (≈ 0.566 µM) | unexpectedly low cytotoxicity |  |  |  | 
Nc1nc(=O)n([C@@H]2CS[C@H](CO)O2)cc1F (relative stereo) [Intermediate 1, (±)-Cis-2-hydroxymethyl-5-(5'-fluorocytosin-1'-yl)1,3-oxathiolane] |  | 173 (≈ 700 µM) | 232 (≈ 938 µM) | 0.065 (≈ 0.263 µM) |  |  |  |  | 
Nc1nc(=O)n([C@H]2CS[C@@H](CO)O2)cc1F [(+)-enantiomer, (+)-cis-2-hydroxymethyl-5-(5'-fluorocytosin-1'-yl) -1,3-oxathiolane] |  | 217 (≈ 878 µM) | 334 (≈ 1350 µM) | > 1 | unexpectedly low cytotoxicity | 0.04 (≈ 0.162 µM) | 0.1 (≈ 0.404 µM) |  | 
Cc1cn([C@H]2C[C@H](N=[N+]=[N-])[C@@H](CO)O2)c(=O)[nH]c1=O [AZT, 3'-azido-3'-deoxythymidine, reference compound] |  |  |  |  |  |  |  | 0.0038 (≈ 0.0142 µM) | 0.017 (≈ 0.0636 µM)
